Data reported in US9598359B2, “Sulfonates from natural oil metathesis” (priority 2010, dated 2017).
Like-named read-outs stand apart in the source and are kept apart here.

What was measured:
[1] = format: physicochemical; set-up: key to Spont. (spontaneity or bloom): E (excellent); G (good); F (fair); P (poor); settings: for % Separation, 1 h / % Separation, 24 h: C = cream; for % Separation, 24 h, oil: O = oil separated, Tr = trace of oil

## CCCCCCCCCC(=O)OC(CCCCCCCC(=O)OC)C(CCCCCCCC(=O)OC)S(=O)(=O)[O-].[Na+] (centres unmarked) [C18-63, DBE C10 FA (60:40) SLA]
[1]; 34 ppm water
  Spont. (spontaneity or bloom): F
  % Separation, 1 h: 3.1%
  % Separation, 24 h: 3 C, %
  % Separation, 24 h, oil: 1 O %
[1]; 1000 ppm water
  Spont. (spontaneity or bloom): F
  % Separation, 1 h: 3%
  % Separation, 24 h: 2.5 C, %
  % Separation, 24 h, oil: 1 O %

## CCCCCCCCCC(=O)OC(CCCCCCCC(=O)OC)C(CCCCCCCC(=O)OC)S(=O)(=O)[O-].[Na+] (centres unmarked) [C18-64, DBE C10 FA (75:25) SLA]
[1]; 34 ppm water
  Spont. (spontaneity or bloom): F−
  % Separation, 1 h: 3.2%
  % Separation, 24 h: 2.5 C, %
  % Separation, 24 h, oil: 1 O %
[1]; 1000 ppm water
  Spont. (spontaneity or bloom): F−
  % Separation, 1 h: 3.7%
  % Separation, 24 h: 3 C, %
  % Separation, 24 h, oil: 1 O %

## CCCCCCCCCC(=O)OC(CCCCCCCC(=O)OC)CS(=O)(=O)[O-].[Na+] (centres unmarked) [C10-35, C10 UME C10 FA (60:40) SLA]
[1]; 34 ppm water
  Spont. (spontaneity or bloom): F
  % Separation, 1 h: 3%
  % Separation, 24 h: 3%
[1]; 1000 ppm water
  Spont. (spontaneity or bloom): F
  % Separation, 1 h: 3.4%
  % Separation, 24 h: 4%

## C=CCCCCCCCC(=O)OC(CCCCCCCC(=O)[O-])CS(=O)(=O)[O-].[Na+].[Na+] (centres unmarked) [C10-32, C10 UFA SLA]
Adjuvant (anionic/nonionic) test sample
  Emulsion stability, mL separation, 1 h: 0 mL
Adjuvant (anionic/nonionic) test sample, Tr = trace
  Emulsion stability, mL separation, 24 h: Tr
Anionic test sample
  Emulsion stability, mL separation, 1 h: 0 mL
  Emulsion stability, mL separation, 24 h: 0 mL
Anionic test sample, 342 ppm water, 30° C.
  sol (solubility): S
Nonionic test sample
  Emulsion stability, mL separation, 1 h: 1 mL
  Emulsion stability, mL separation, 24 h: 1 mL
[1]; 34 ppm water
  Spont. (spontaneity or bloom): F
  % Separation, 1 h: 3%
  % Separation, 24 h: 3.9%
[1]; 1000 ppm water
  Spont. (spontaneity or bloom): F
  % Separation, 1 h: 2.5%
  % Separation, 24 h: 3%

## CCCCCCCCCCCC(=O)OC(CCCCCCCC(=O)[O-])C(CC)S(=O)(=O)[O-].[Na+].[Na+] (centres unmarked) [C12-35, C12 UFA C12 FA (80:20) SLA]
[1]; 34 ppm water
  Spont. (spontaneity or bloom): F
  % Separation, 1 h: 3.8%
  % Separation, 24 h: 5 C, %
  % Separation, 24 h, oil: Tr
[1]; 1000 ppm water
  Spont. (spontaneity or bloom): F
  % Separation, 1 h: 3%
  % Separation, 24 h: 4 C, %
  % Separation, 24 h, oil: Tr

## CCCCCCCCCCCC(=O)OC(CCCCCCCC(=O)OC)C(CC)S(=O)(=O)[O-].[Na+] (centres unmarked) [C12-37, C12 UME C12 FA (60:40) SLA]
[1]; 34 ppm water
  Spont. (spontaneity or bloom): F
  % Separation, 1 h: 3%
  % Separation, 24 h: 4 C, %
  % Separation, 24 h, oil: <1 O %
[1]; 1000 ppm water
  Spont. (spontaneity or bloom): F
  % Separation, 1 h: 3%
  % Separation, 24 h: 3 C, %
  % Separation, 24 h, oil: 1 O %

## CCCCCCCCCCCCCCCCCC(=O)OC(CCCCCCCC(=O)[O-])C(CC)S(=O)(=O)[O-].[Na+].[Na+] (centres unmarked) [C12-36, C12 UFA C18 FA (80:20) SLA]
[1]; 34 ppm water
  Spont. (spontaneity or bloom): F
  % Separation, 1 h: 3.8%
  % Separation, 24 h: 4.5 C, %
  % Separation, 24 h, oil: Tr
[1]; 1000 ppm water
  Spont. (spontaneity or bloom): F
  % Separation, 1 h: 3.6%
  % Separation, 24 h: 4 C, %
  % Separation, 24 h, oil: Tr
